The nature of data set [1]: Mouse PK: axitinib concentration in blood plasma and kidney tissue post-administration. The note with it: oral gavage, single dose 10 mg/kg. The data set is classed as in vivo. How it is done: Preferential accumulation of compounds provided herein in kidneys (or near the site of a kidney cancer) may be evaluated by pharmacokinetic (PK) tests, such as in a standard rat PK test.
In PK studies, the levels (concentration) of a therapeutic drug is determined in key body compartments, such as blood and select organ tissues, is determined over a given time course. […] For therapy of renal cancers, the targeted organ is kidney.

The next data set relates to Caki-1. Put plainly: In vitro inhibition of cancer cells, CTG assay, 72 h. The data set is classed as cell-based, human. The note with it: Caki-1, 72 h incubation. The text has this:
In vitro activity of compounds provided herein may be assessed by standard testing procedures using various cancer cell lines (alongside normal cell comparators), such as described, for example, in ACS Pharmacol. Transl. Sci. 2019, vol. 2, p. 18; J. Med. Chem. 2018, vol. 61, p. 5304; and methods in references cited therein.
Therein, Caki-1 is a human clear cell renal cell carcinoma (ccRCC) line. The ACTHN cell line was derived from the pleural effusion of a patient with metastatic renal carcinoma. The 786-O cell line is a hypertriploid renal cancer cell carcinoma cell line. Generally, cells were plated into […] microplates and pre-incubated for 24 h. Subsequently, the test compound solutions were added, and cells growth inhibition analyzed with 9-point data plot. After 72 h of the incubation, the number and proportion of the viable cells was determined by CTG assay, and IC50 values calculated.

A short description of data set [2]: 14-days repeat-dose mouse tolerability test. Conditions: in vivo, 18 mg/kg/day, read-out: well-tolerated dose, 14-days repeat-dose. The text has this:
In addition the high efficacy against renal cancers, such drug must be well-tolerated.

Results on five molecules are retold here after patent publication US20230141981A1, “NOVEL COMPOUNDS AND COMPOSITION FOR TARGETED THERAPY OF KIDNEY-ASSOCIATED CANCERS” (SHANGHAI MICURX PHARMACEUTICALS CO., LTD, priority 2020, published 2023).

Bridge positions count the residues as written; N and C are the ends. Square brackets hold non-standard residues; d marks the D form. Peptide text beside a SMILES is read from it. * marks the point of attachment. X1 = CNC(=O)c1ccccc1Sc1ccc2c(/C=C/c3ccccn3)nn(C(=O)N(CCNC(=O)CC[C@H](N)C(=O)O)CCC(=O)*)c2c1; X3 = CNC(=O)c1ccccc1Sc1ccc2c(/C=C/c3ccccn3)nn(C(=O)*)c2c1; Dab = NCC[C@H](N)C(=O)O Bounds are passed on as bounds.

For the molecule `CNC(=O)c1ccccc1Sc1ccc2c(/C=C/c3ccccn3)n[nH]c2c1` [Axitinib, N-methyl-2-[[3-[(E)-2-pyridin-2-ylethenyl]-1H-indazol-6-yl]sulfanyl]benzamide], the “Blood Plasma Conc. (axitinib)” value is reported as “T = 4 h: 95.1 ng/mL” in data set [1] (T = 4 h) and “T = 6 h: 35.4 ng/mL” in data set [1] (T = 6 h).

The molecule `CNC(=O)c1ccccc1Sc1ccc2c(/C=C/c3ccccn3)nn(C(=O)N[C@@H](CCN)C(=O)N[C@H](C(=O)N[C@@H](CCN)C(=O)N[C@H]3CCNC(=O)[C@H]([C@@H](C)O)NC(=O)[C@H](CCN)NC(=O)[C@H](CCN)NC(=O)[C@H](CC(C)C)NC(=O)[C@@H](Cc4ccccc4)NC(=O)[C@H](CCN)NC3=O)[C@@H](C)O)c2c1` [Example 17] (X3-[Dab]T[Dab][Dab][Dab][dF]L[Dab][Dab]T; lactam 4-C) had an IC50 in the data set on Caki-1 of 8.6 µM.

For `CNC(=O)c1ccccc1Sc1ccc2c(/C=C/c3ccccn3)nn(C(=O)N(CCNC(=O)CC[C@H](N)C(=O)O)CCC(=O)N[C@H](C(=O)N[C@@H](CCN)C(=O)N[C@H]3CCNC(=O)[C@H]([C@@H](C)O)NC(=O)[C@H](CCN)NC(=O)[C@H](CCN)NC(=O)[C@H](CC(C)C)NC(=O)[C@@H](Cc4ccccc4)NC(=O)[C@H](CCN)NC3=O)[C@@H](C)O)c2c1` [Example 29] (X1-T[Dab][Dab][Dab][dF]L[Dab][Dab]T; lactam 3-C; N-terminus assumed), the MTD at 336 h in data set [2] was at least 18 mg/kg/day.

In the data set with Caki-1 (Homo sapiens), `Cc1ccc(Nc2nccc(N(C)c3ccc4c(C)n(C)nc4c3)n2)cc1S(N)(=O)=O` [Pazopanib, 5-[[4-[(2,3-dimethylindazol-6-yl)-methylamino]pyrimidin-2-yl]amino]-2-methylbenzenesulfonamide] had an IC50 of 19.4 µM.

Molecule `CCN(CC)CCNC(=O)c1c(C)[nH]c(/C=C2\C(=O)Nc3ccc(F)cc32)c1C` [Sunitinib, (Z)—N-(2-(diethylamino)ethyl)-5-((5-fluoro-2-oxoindolin-3-ylidene)methyl)-2,4-dimethyl-1H-pyrrole-3-carboxamide] had an IC50 with Caki-1 (Homo sapiens) of 6.9 µM.

As a reminder, the IC50 is the concentration that gives 50% inhibition.
